Experimental data from paper PMC6830221, “Engineering a surrogate human heteromeric α/β glycine receptor orthosteric site exploiting the structural homology and stability of acetylcholine-binding protein” (IUCrJ, 2019).
Where “and” joins values, the source holds several entries; their conditions need not be identical. Identical values can stand only once. Like-named read-outs stand apart in the source and are kept apart here.

Experiments:
AcAChBP [1] = details: ref Hansen et al., cited from earlier work
AcAChBP [2] = details: ref Brams et al., 2011; cited from earlier work
[3] = biological target: recombinant homomeric GlyR-α3; details: surface plasmon resonance, ref Huang et al., 2015; cited from earlier work
WT AcAChBP [4] = biological target: T1, WT AcAChBP (Aplysia californica, UniProt Q8WSF8); assay: biochemical
T1 sequence (Q8WSF8 entry or part of it): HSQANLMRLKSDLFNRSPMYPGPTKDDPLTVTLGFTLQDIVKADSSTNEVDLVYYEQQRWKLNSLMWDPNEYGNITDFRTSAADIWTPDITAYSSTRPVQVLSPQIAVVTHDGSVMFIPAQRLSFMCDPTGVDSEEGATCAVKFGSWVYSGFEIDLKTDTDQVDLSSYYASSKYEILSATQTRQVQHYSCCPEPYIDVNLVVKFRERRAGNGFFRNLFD
Protocol: (§1) The interaction of strychnine with AcAChBP and GBP was investigated using ITC. Measurements were carried out with a MicroCal PEAQ-ITC (Malvern Panalytical) at 25°C. The protein solutions (10 µM AcAChBP, 40 µM GBP) were prepared by dialysis against buffer (50 mM Tris–HCl pH 7.5, 250 mM NaCl) at 4°C overnight. Strychnine solutions (concentrations of 100 and 500 µM) were prepared in the same buffer. For the experiments, the initial injection of one 0.4 µl aliquot was followed by 17 × 2 µl injections at 3 min intervals. In each case the injection needle acted as a paddle, stirring the cell contents at 750 rev min^−1, and the reference was set at 10 µcal s^−1. Data were analyzed using the software supplied by the manufacturer to calculate K d, ΔH, −TΔS, ΔG and N, which were derived from a one-binding-site model. Control measurements, buffer into buffer, strychnine into buffer and buffer into protein solutions, were used to determine an appropriate offset adjustment. Examples of the data, averaged parameters and standard errors derived from three titrations are presented in Supplementary Fig. S1.

[5] = biological target: T2, variant III, glycine-binding protein (GBP) (Aplysia californica, UniProt Q8WSF8, C207G/C208T/G162E/I135S/P209G/Q74R/S206K/T53F/Y110A); assay: biochemical
T2 sequence (Q8WSF8 18-236 C207G/C208T/G162E/I135S/P209G/Q74R/S206K/T53F/Y110A limits assumed): as the sequence (Q8WSF8 entry or part of it) above, with T36F, Q57R, Y93A, I118S, G145E, S189K, C190G, C191T, P192G counted along it
Protocol: as §1

[6] = biological target: T2, variant III, glycine-binding protein (GBP); assay: biochemical; remark: listed apart in the source
Protocol: (§2) Measurements were recorded using a PerkinElmer LS-55 spectrophotometer with the detector sensitivity set to 750 V. Stock solutions of 10 µg ml^−1 GBP and AcAChBP were prepared, along with two strychnine stock solutions of 100 µM and 1 mM in the same buffer as used for the ITC experiments. The protein samples (2 ml) were excited at a wavelength of 280 nm, and emission was recorded between 300 and 400 nm. For GBP, aliquots of 20 µl of the 1 mM strychnine stock were used, followed by mixing. For AChBP, additions of 2 µl of the 100 µM strychnine stock were made, followed by mixing. Experiments were carried out in triplicate and the percentage change in fluorescence was calculated. Data were analyzed using Microsoft Excel and GraphPad Prism 7.

[7] = biological target: recombinant homomeric GlyR-α3; details: ITC, ref Huang et al., 2015; cited from earlier work
[8] = ref Haynes, 2015; cited from earlier work
WT AcAChBP [9] = biological target: T1, WT AcAChBP; assay: Tryptophan fluorescence-quenching assay; format: binding; set-up: made in house; host or cells: baculovirus/Sf9
Protocol: as §2

[10] = biological target: recombinant homomeric GlyR-α1; details: radioligand saturation assay, ref Wöhri et al., 2013; cited from earlier work
[11] = biological target: recombinant homomeric GlyR-α1; details: ITC, ref Wöhri et al., 2013; cited from earlier work
[12] = biological target: AcAChBP variant II (T53F, Q74R, Y110A, I135S, G162E) (Aplysia californica, UniProt Q8WSF8, G162E/I135S/Q74R/T53F/Y110A); details: Table S1, Variant-II
Chain of AcAChBP variant II (T53F, Q74R, Y110A, I135S, G162E) (Q8WSF8 18-236 T53F/Q74R/Y110A/I135S/G162E limits assumed): as the sequence (Q8WSF8 entry or part of it) above, with T36F, Q57R, Y93A, I118S, G145E counted along it
Protocol: (§3) Fluorescence-based screening by differential scanning fluorimetry (DSF; see, for example, Eadsforth et al., 2012[▸]) was used to determine the melting temperature (T m) values. An Mx3005P RT PCR system (Stratagene) was used to monitor protein unfolding by the increase in fluorescence of SYPRO Orange dye (Invitrogen). Assays were carried out in 40 µl volumes with proteins at around 10 µM in 50 mM Tris–HCl, 250 mM NaCl pH 7.5 in 96-well RT PCR plates (ABgene). To investigate the influence of the chemical probe strychnine, 1 µl of strychnine dissolved in DMSO or buffer and then diluted with buffer was incubated with the protein solutions for 5 min prior to 71 cycles of 1°C temperature increments starting at 25°C. After each 1°C increase the sample was excited at 492 nm and fluorescence emission was recorded at 610 nm. The melting temperatures were plotted against a reference control sample of DMSO only. The strychnine concentration varied between […], with a requirement to limit the concentration of DMSO in the final mixture to <2.5%.

[13] = biological target: T2, variant III, glycine-binding protein (GBP)
Protocol: as §3

[14] = biological target: AcAChBP variant I (T53F, Q74R, Y110A, I135S, W164F) (Aplysia californica, UniProt Q8WSF8, I135S/Q74R/T53F/W164F/Y110A); details: Table S1, Variant-I, biphasic melting
Chain of AcAChBP variant I (T53F, Q74R, Y110A, I135S, W164F) (Q8WSF8 18-236 T53F/Q74R/Y110A/I135S/W164F limits assumed): as the sequence (Q8WSF8 entry or part of it) above, with T36F, Q57R, Y93A, I118S, W147F counted along it
Protocol: as §3

[15] = biological target: T2, variant III, glycine-binding protein (GBP); remark: listed apart in the source
AcAChBP variant II = AcAChBP variant II (Aplysia californica, UniProt Q8WSF8, G162E/I135S/Q74R/T53F/Y110A)
Chain of AcAChBP variant II (Q8WSF8 18-236 T53F/Q74R/Y110A/I135S/G162E limits assumed): as the sequence (Q8WSF8 entry or part of it) above, with T36F, Q57R, Y93A, I118S, G145E counted along it
Protocol: as §2

AcAChBP variant I = AcAChBP variant I (Aplysia californica, UniProt Q8WSF8, I135S/Q74R/T53F/W164F/Y110A)
Chain of AcAChBP variant I (Q8WSF8 18-236 T53F/Q74R/Y110A/I135S/W164F limits assumed): as the sequence (Q8WSF8 entry or part of it) above, with T36F, Q57R, Y93A, I118S, W147F counted along it
Protocol: as §2

[16] = binding to AcAChBP, stopped-flow spectrofluorimetry, 2005

In the case of O=C1C[C@@H]2OCC=C3CN4CC[C@]56c7ccccc7N1[C@H]5[C@H]2[C@H]3C[C@H]46 [strychnine], the Kd (AcAChBP [1]; AcAChBP, stopped-flow spectrofluorimetry assay, 2004) is listed as 15 nM, the Ki (AcAChBP [2]) is listed as 38 nM and the Kd [3] is listed as 43 nM. For the same compound, the Kd (WT AcAChBP [4]) was 74.1 nM, the Kd [5] was 28800 nM and the Kd ([6]; Kd, tryptophan fluorescence, GBP, n=3) was 26600 nM and 27000 nM. For the same compound, the Kd [7] was 52 nM, the pKa [8] was “approximately 8.3” and the Kd (WT AcAChBP [9]) was 155 nM. The Kd [10] was 52 nM, the Kd [11] was 138 nM and the “∆Tm (C) + strychnine” value [12] was “+5 C”. The “∆Tm (C) + strychnine” value ([13]; Table S1, Variant-III (GBP)) was “+3 C”, the “∆Tm (C) + strychnine” value ([14]; first value) was “+5 C” and the “∆Tm (C) + strychnine” value ([14]; second value) was “+25 C”.

In the case of NCC(=O)O [glycine], the “association with variant III (biolayer interferometry)” value [15] is reported as “failed to show any binding”, the “association with variant III (ITC)” value ([5]; variant III (GBP)) is reported as “failed to show any binding” and the “association with variant III (fluorescence assay)” value ([6]; variant III (GBP)) is reported as “failed to show any binding”. For the same compound, the “ligand binding (tryptophan fluorescence)” value (AcAChBP variant II) was “neither did the fluorescence assay register any glycine binding”, the “ligand binding (tryptophan fluorescence)” value (AcAChBP variant I) was “neither did the fluorescence assay register any glycine binding” and the ΔTm ([13]; ligand binding to variant III (GBP), DSF) was “+2 °C”.

For CN1CCC[C@H]1c1cccnc1 [nicotine], the Kd (AcAChBP [1]; [16]) is given as 250 nM, the Kd (WT AcAChBP [9]; binding to WT AcAChBP, tryptophan fluorescence, three titrations, read-out: Kd) is given as 245 nM and the “ligand binding (tryptophan fluorescence)” value (AcAChBP variant II) is given as “Neither variant I nor variant II appeared to be able to bind nicotine”. The “ligand binding (tryptophan fluorescence)” value (AcAChBP variant I) was “Neither variant I nor variant II appeared to be able to bind nicotine”.

In the case of CN1[C@@H]2CC[C@H]1C[C@@H](OC(=O)c1c[nH]c3ccccc13)C2 [tropisetron], the Kd (AcAChBP [1]; [16]) is given as 480 nM and the Kd (WT AcAChBP [9]) is given as 275 nM.
